This note sets out measurements from patent EP4685149A1, “NOVEL COMPOUND AS ENDOTHELIAL TO MESENCHYMAL TRANSITION (ENDMT) INHIBITOR, AND PHARMACEUTICAL COMPOSITION COMPRISING SAME” (Korea Institute of Radiological & Medical Sciences, priority 2023, dated 2024).

Read-outs that look alike come from different tables or passages of the source.

The test system of the assay is human vascular endothelial cell lines. The assay can be described thus: Inhibition of radiation-induced endothelial cell transition (EndMT), phalloidin immunofluorescence staining. It counts as cell-based. Particulars: 10 uM test substance 1 hour before 10 Gy irradiation, 72 hours after irradiation, relative ratio with IR group (10 Gy alone) as 100%; for activity at 10 µM: Homo sapiens, Endothelial cell, light or radiation study. Here is the method:
Test substances (Examples 1 to 45) were treated with a 10 mM DMSO solution at a ratio of 1 µL per 1 mL of cell culture medium to a final concentration of 10 uM, and the test substances were treated 1 hour before irradiation on human vascular endothelial cell lines (Promocell, Germany), and then, it was irradiated at an intensity of 10 Gy. 72 hours after irradiation, the human vascular endothelial cell lines were fixed with 10% formalin, and the experiment was conducted according to the manufacturer's method using phalloidin (Invitrogen, USA) to confirm the cytoskeleton filaments that increase during fibrosis. Phalloidin is a protein that binds to the actin of cytoskeleton filaments, and phalloidin conjugated with FITC fluorescent substance made the cytoskeleton filaments appear green when observed under a microscope.
After treatment with the test substance, the area, length and density of phalloidin were measured by using a confocal microscope, and the relative ratio was expressed with the irradiated group (IR group) that was irradiated with 10 Gy alone as 100% (Table 1).

Consider `CC#Cc1nc(N[C@@H]2CCc3ccccc32)c2ncn([C@@H]3SC[C@@H](O)[C@H]3O)c2n1` [Example 1, (2R,3R,4S)-2-[6-[[(1R)-indan-1-yl]amino]-2-prop-1-ynyl-purin-9-yl]tetrahydrothiophene-3,4-diol], for which the activity at 10 µM runs as follows: (read-out: Palloidin Area) 50 to 80%; (read-out: Palloidin Intensity) 50 to 80%; (read-out: Palloidin Length) above 80%.
On to `CC#Cc1nc(N[C@H]2CCc3ccccc32)c2ncn([C@@H]3SC[C@@H](O)[C@H]3O)c2n1` [Example 2, (2R,3R,4S)-2-[6-[[(1S)-indan-1-yl]amino]-2-prop-1-ynyl-purin-9-yl]tetrahydrothiophene-3,4-diol], for which the activity at 10 µM by setting is: (read-out: Palloidin Area) above 80%; (read-out: Palloidin Intensity) above 80%; (read-out: Palloidin Length) above 80%.
For the compound `CCC#Cc1nc(N[C@@H]2CCc3ccccc32)c2ncn([C@@H]3SC[C@@H](O)[C@H]3O)c2n1` [Example 3, (2R,3R,4S)-2-[2-but-1-ynyl-6-[[(1R)-indan-1-yl]amino]purin-9-yl]tetrahydrothiophene-3,4-diol], the activity at 10 µM is, setting by setting: (read-out: Palloidin Area) above 80%; (read-out: Palloidin Intensity) above 80%; (read-out: Palloidin Length) above 80%.
On to `CCC#Cc1nc(N[C@H]2CCc3ccccc32)c2ncn([C@@H]3SC[C@@H](O)[C@H]3O)c2n1` [Example 4, (2R,3R,4S)-2-[2-but-1-ynyl-6-[[(1S)-indan-1-yl]amino]purin-9-yl]tetrahydrothiophene-3,4-diol], for which the activity at 10 µM reads like this: (read-out: Palloidin Area) 50 to 80%; (read-out: Palloidin Intensity) 50 to 80%; (read-out: Palloidin Length) 50 to 80%.
With `CCCC#Cc1nc(N[C@@H]2CCc3ccccc32)c2ncn([C@@H]3SC[C@@H](O)[C@H]3O)c2n1` [Example 5, (2R,3R,4S)-2-[6-[[(1R)-indan-1-yl]amino]-2-pent-1-ynyl-purin-9-yl]tetrahydrothiophene-3,4-diol], the activity at 10 µM runs as follows: (read-out: Palloidin Area) 50 to 80%; (read-out: Palloidin Intensity) 50 to 80%; (read-out: Palloidin Length) 50 to 80%.
For `CCCC#Cc1nc(N[C@H]2CCc3ccccc32)c2ncn([C@@H]3SC[C@@H](O)[C@H]3O)c2n1` [Example 6, (2R,3R,4S)-2-[6-[[(1S)-indan-1-yl]amino]-2-pent-1-ynyl-purin-9-yl]tetrahydrothiophene-3,4-diol], the “Palloidin Length” value was “++^+”. The activity at 10 µM (read-out: Palloidin Area) was in the range of 20 to 50%. Moreover, the activity at 10 µM (read-out: Palloidin Intensity) lay in the range of 20 to 50%.
For the compound `O[C@@H]1[C@H](O)CS[C@H]1n1cnc2c(NC3Cc4ccccc4C3)nc(Cl)nc21` [Example 7, (2R,3R,4S)-2-[2-chloro-6-(indan-2-ylamino)purin-9-yl]tetrahydrothiophene-3,4-diol], the activity at 10 µM is, setting by setting: (read-out: Palloidin Area) above 80%; (read-out: Palloidin Intensity) above 80%; (read-out: Palloidin Length) above 80%.
Take `O[C@@H]1[C@H](O)CS[C@H]1n1cnc2c(NC3CCc4ccccc43)nc(Cl)nc21` (stereo partly drawn) [Example 8, (2R,3R,4S)-2-[2-chloro-6-(indan-1-ylamino)purin-9-yl]tetrahydrothiophene-3,4-diol]: the activity at 10 µM is 20 to 50% (read-out: Palloidin Area), 20 to 50% (read-out: Palloidin Intensity) and 20 to 50% (read-out: Palloidin Length).
Turning to `O[C@@H]1[C@H](O)CS[C@H]1n1cnc2c(N[C@@H]3CCc4ccccc43)nc(Cl)nc21` [Example 9, (2R,3R,4S)-2-[2-chloro-6-[[(1R)-indan-1-yl]amino]purin-9-yl]tetrahydrothiophene-3,4-diol], the activity at 10 µM (read-out: Palloidin Area) lay within 50 to 80%, the activity at 10 µM (read-out: Palloidin Intensity) was in the range of 50 to 80% and the activity at 10 µM (read-out: Palloidin Length) was in the range of 50 to 80%.
As for `O[C@@H]1[C@H](O)CS[C@H]1n1cnc2c(N[C@H]3CCc4ccccc43)nc(Cl)nc21` [Example 10, (2R,3R,4S)-2-[2-chloro-6-[[(1S)-indan-1-yl]amino]purin-9-yl]tetrahydrothiophene-3,4-diol], the activity at 10 µM by setting is: (read-out: Palloidin Area) above 80%; (read-out: Palloidin Intensity) above 80%; (read-out: Palloidin Length) above 80%.
With `COc1cccc2c1CC[C@H]2Nc1nc(Cl)nc2c1ncn2[C@@H]1SC[C@@H](O)[C@H]1O` [Example 11, (2R,3R,4S)-2-[2-chloro-6-[[(1R)-4-methoxyindan-1-yl]amino]purin-9-yl]tetrahydrothiophene-3,4-diol], the activity at 10 µM is, setting by setting: (read-out: Palloidin Area) 20 to 50%; (read-out: Palloidin Intensity) 20 to 50%; (read-out: Palloidin Length) 20 to 50%.
Take `COc1ccc2c(c1)CC[C@H]2Nc1nc(Cl)nc2c1ncn2[C@@H]1SC[C@@H](O)[C@H]1O` [Example 12, (2R,3R,4S)-2-[2-chloro-6-[[(1R)-5-methoxyindan-1-yl]amino]purin-9-yl]tetrahydrothiophene-3,4-diol]: the activity at 10 µM (read-out: Palloidin Area) is above 80%, the activity at 10 µM (read-out: Palloidin Intensity) is above 80% and the activity at 10 µM (read-out: Palloidin Length) is above 80%.
With `COc1ccc2c(c1)[C@H](Nc1nc(Cl)nc3c1ncn3[C@@H]1SC[C@@H](O)[C@H]1O)CC2` [Example 13, (2R,3R,4S)-2-[2-chloro-6-[[(1R)-6-methoxyindan-1-yl]amino]purin-9-yl]tetrahydrothiophene-3,4-diol], the activity at 10 µM runs as follows: (read-out: Palloidin Area) 50 to 80%; (read-out: Palloidin Intensity) 50 to 80%; (read-out: Palloidin Length) 50 to 80%.
Turning to `COc1cccc2c1[C@H](Nc1nc(Cl)nc3c1ncn3[C@@H]1SC[C@@H](O)[C@H]1O)CC2` [Example 14, (2R,3R,4S)-2-[2-chloro-6-[[(1R)-7-methoxyindan-1-yl]amino]purin-9-yl]tetrahydrothiophene-3,4-diol], the activity at 10 µM is 50 to 80% (read-out: Palloidin Area), 50 to 80% (read-out: Palloidin Intensity) and 50 to 80% (read-out: Palloidin Length).
`O[C@@H]1[C@H](O)CS[C@H]1n1cnc2c(N[C@@H]3CCc4c(F)cccc43)nc(Cl)nc21` [Example 15, (2R,3R,4S)-2-[2-chloro-6-[[(1R)-4-fluoroindan-1-yl]amino]purin-9-yl]tetrahydrothiophene-3,4-diol]: the activity at 10 µM (read-out: Palloidin Area) is below 20%, the activity at 10 µM (read-out: Palloidin Intensity) was below 20% and the activity at 10 µM (read-out: Palloidin Length) was below 20%.
As for `O[C@@H]1[C@H](O)CS[C@H]1n1cnc2c(N[C@@H]3CCc4cc(F)ccc43)nc(Cl)nc21` [Example 16, (2R,3R,4S)-2-[2-chloro-6-[[(1R)-5-fluoroindan-1-yl]amino]purin-9-yl]tetrahydrothiophene-3,4-diol], the activity at 10 µM is below 20% (read-out: Palloidin Area), below 20% (read-out: Palloidin Intensity) and below 20% (read-out: Palloidin Length).
Turning to `O[C@@H]1[C@H](O)CS[C@H]1n1cnc2c(N[C@@H]3CCc4c(Cl)cccc43)nc(Cl)nc21` [Example 17, (2R,3R,4S)-2-[2-chloro-6-[[(1R)-4-chloroindan-1-yl]amino]purin-9-yl]tetrahydrothiophene-3,4-diol], the activity at 10 µM (read-out: Palloidin Area) is below 20%, the activity at 10 µM (read-out: Palloidin Intensity) was below 20% and the activity at 10 µM (read-out: Palloidin Length) was below 20%.
`O[C@@H]1[C@H](O)CS[C@H]1n1cnc2c(N[C@@H]3CCc4cc(Cl)ccc43)nc(Cl)nc21` [Example 18, (2R,3R,4S)-2-[2-chloro-6-[[(1R)-5-chloroindan-1-yl]amino]purin-9-yl]tetrahydrothiophene-3,4-diol]: the activity at 10 µM runs as follows: (read-out: Palloidin Area) below 20%; (read-out: Palloidin Intensity) below 20%; (read-out: Palloidin Length) below 20%.
As for `O[C@@H]1[C@H](O)CS[C@H]1n1cnc2c(N[C@@H]3CCc4c(Br)cccc43)nc(Cl)nc21` [Example 19, (2R,3R,4S)-2-[2-chloro-6-[[(1R)-4-bromoindan-1-yl]amino]purin-9-yl]tetrahydrothiophene-3,4-diol], the activity at 10 µM (read-out: Palloidin Area) lay in the range of 20 to 50%, the activity at 10 µM (read-out: Palloidin Intensity) is 20 to 50% and the activity at 10 µM (read-out: Palloidin Length) was in the range of 20 to 50%.
Consider `O[C@@H]1[C@H](O)CS[C@H]1n1cnc2c(N[C@@H]3CCc4cc(Br)ccc43)nc(Cl)nc21` [Example 20, (2R,3R,4S)-2-[2-chloro-6-[[(1R)-5-bromoindan-1-yl]amino]purin-9-yl]tetrahydrothiophene-3,4-diol], for which the activity at 10 µM reads like this: (read-out: Palloidin Area) below 20%; (read-out: Palloidin Intensity) 20 to 50%; (read-out: Palloidin Length) below 20%.
Consider `O[C@@H]1[C@H](O)CS[C@H]1n1cnc2c(N[C@@H]3CCc4ccc(Br)cc43)nc(Cl)nc21` [Example 21, (2R,3R,4S)-2-[2-chloro-6-[[(1R)-6-bromoindan-1-yl]amino]purin-9-yl]tetrahydrothiophene-3,4-diol], for which the activity at 10 µM (read-out: Palloidin Area) lay in the range of 20 to 50%, the activity at 10 µM (read-out: Palloidin Intensity) lay in the range of 20 to 50% and the activity at 10 µM (read-out: Palloidin Length) fell in the range of 20 to 50%.
`Cc1cccc2c1CC[C@H]2Nc1nc(Cl)nc2c1ncn2[C@@H]1SC[C@@H](O)[C@H]1O` [Example 22, (2R,3R,4S)-2-[2-chloro-6-[[(1R)-4-methylindan-1-yl]amino]purin-9-yl]tetrahydrothiophene-3,4-diol]: the “Palloidin Length” value is “+ + + +”. Also, the activity at 10 µM (read-out: Palloidin Area) is below 20%. Further, the activity at 10 µM (read-out: Palloidin Intensity) was below 20%.
Consider `O[C@@H]1[C@H](O)CS[C@H]1n1cnc2c(N[C@@H]3CCc4c3cccc4C(F)(F)F)nc(Cl)nc21` [Example 23, (2R,3R,4S)-2-[2-chloro-6-[[(1R)-4-(trifluoromethyl)indan-1-yl]amino]purin-9-yl]tetrahydrothiophene-3,4-diol], for which the activity at 10 µM by setting is: (read-out: Palloidin Area) above 80%; (read-out: Palloidin Intensity) above 80%; (read-out: Palloidin Length) above 80%.
